Measurements: ChEMBL document CHEMBL1275587, “Emergence of ciprofloxacin-nonsusceptible Streptococcus pyogenes isolates from healthy children and pediatric patients in Portugal” (2010)
Converted amounts (≈) assume the structure as drawn.

How the values were obtained:
Type in all cases: functional
Streptococcus pyogenes [1] = experiment: Antimicrobial activity against ciprofloxacin-nonsusceptible Streptococcus pyogenes isolates assessed as susceptible isolates by agar dilution method
Streptococcus pyogenes [2] = experiment: Antimicrobial activity against ciprofloxacin-nonsusceptible Streptococcus pyogenes isolates assessed as resistant isolates by agar dilution method
Streptococcus pyogenes [3] = experiment: Antimicrobial activity against ciprofloxacin-nonsusceptible Streptococcus pyogenes isolates by agar dilution method
Streptococcus pyogenes [4] = experiment: Antimicrobial activity against ciprofloxacin-nonsusceptible Streptococcus pyogenes isolates assessed as intermediate resistant isolates by agar dilution method
Streptococcus pyogenes [5] = experiment: Antimicrobial activity against ciprofloxacin-nonsusceptible, DY PFGE pattern, emm6 type Streptococcus pyogenes with ST382 sequence type, ParC S79A mutant isolated from oropharyngeal colonization
Streptococcus pyogenes [6] = experiment: Antimicrobial activity against ciprofloxacin-nonsusceptible, CJ PFGE pattern, emm89 type Streptococcus pyogenes with ST101 sequence type isolated from tonsillitis/pharyngitis
Streptococcus pyogenes [7] = experiment: Antimicrobial activity against ciprofloxacin-nonsusceptible, AD PFGE pattern, […] sequence type, ParC S79A mutant isolated from oropharyngeal colonization and onsillitis/pharyngitis
Streptococcus pyogenes [8] = experiment: Antimicrobial activity against ciprofloxacin-nonsusceptible, AD PFGE pattern, emm6 type Streptococcus pyogenes with ST382 sequence type, ParC S79A mutant isolated from oropharyngeal colonization, tonsillitis/pharyngitis and skin/soft tissue infection
Streptococcus pyogenes [9] = experiment: Antimicrobial activity against ciprofloxacin-nonsusceptible, BT PFGE pattern, emm28 type Streptococcus pyogenes with ST52 sequence type, ParC D83G mutant isolated from skin/soft tissue infection
Streptococcus pyogenes [10] = experiment: Antimicrobial activity against ciprofloxacin-nonsusceptible, K PFGE pattern, emm5 type Streptococcus pyogenes with ST99 sequence type, ParC D83G isolated from oropharyngeal colonization
Streptococcus pyogenes [11] = experiment: Antimicrobial activity against ciprofloxacin-nonsusceptible, DX PFGE pattern, emm6 type Streptococcus pyogenes with ST382 sequence type, ParC S79A mutant isolated from oropharyngeal colonization
Streptococcus pyogenes [12] = experiment: Antimicrobial activity against ciprofloxacin-nonsusceptible, AM PFGE pattern, emm6 type Streptococcus pyogenes with ST382 sequence type, ParC S79A mutant isolated from oropharyngeal colonization
Streptococcus pyogenes [13] = experiment: Antimicrobial activity against ciprofloxacin-nonsusceptible, AD PFGE pattern, […] sequence type, ParC S79A mutant isolated from oropharyngeal colonization

Compound | Activity (Streptococcus pyogenes [1]) [%] | Activity (Streptococcus pyogenes [2]) [%] | MIC (Streptococcus pyogenes [3]) [µg/mL] | MIC50 (Streptococcus pyogenes [3]) [µg/mL] | MIC90 (Streptococcus pyogenes [3]) [µg/mL] | Activity (Streptococcus pyogenes [4]) [%] | MIC (Streptococcus pyogenes [5]) [µg/mL] | MIC (Streptococcus pyogenes [6]) [µg/mL] | MIC (Streptococcus pyogenes [7]) [µg/mL] | MIC (Streptococcus pyogenes [8]) [µg/mL] | MIC (Streptococcus pyogenes [9]) [µg/mL] | MIC (Streptococcus pyogenes [10]) [µg/mL] | MIC (Streptococcus pyogenes [11]) [µg/mL] | MIC (Streptococcus pyogenes [12]) [µg/mL] | MIC (Streptococcus pyogenes [13]) [µg/mL]
CCC[C@@H]1C[C@@H](C(=O)N[C@@H]([C@H]2O[C@H](SC)[C@H](O)[C@@H](O)[C@H]2O)[C@H](C)Cl)N(C)C1 [CLINDAMYCIN] | 98.5 | 1.5 | ≤ 0.25 | ≤ 0.25 | ≤ 0.25 | 0 |  |  |  |  |  |  |  |  | 
CN(C)[C@@H]1C(O)=C(C(N)=O)C(=O)[C@@]2(O)C(O)=C3C(=O)c4c(O)cccc4[C@@](C)(O)[C@H]3C[C@@H]12 [TETRACYCLINE] | 98.5 | 1.5 | ≤ 2 | ≤ 2 | ≤ 2 | 0 |  |  |  |  |  |  |  |  | 
O=C(O)c1cn(C2CC2)c2cc(N3CCNCC3)c(F)cc2c1=O [CIPROFLOXACIN] |  |  | 2 (≈ 6.04 µM) |  |  |  | 4 (≈ 12.1 µM) | 2 (≈ 6.04 µM) | 2 (≈ 6.04 µM) | 2 (≈ 6.04 µM) | 2 (≈ 6.04 µM) | 2 (≈ 6.04 µM) | 2 (≈ 6.04 µM) | 2 (≈ 6.04 µM) | 4 (≈ 12.1 µM)
COc1c(N2C[C@@H]3CCCN[C@@H]3C2)c(F)cc2c(=O)c(C(=O)O)cn(C3CC3)c12 [MOXIFLOXACIN] |  |  | ≤ 0.25 | 0.5 (≈ 1.25 µM) | 0.5 (≈ 1.25 µM) |  | 0.5 (≈ 1.25 µM) | 0.5 (≈ 1.25 µM) | 0.5 (≈ 1.25 µM) |  |  | 0.5 (≈ 1.25 µM) | 0.5 (≈ 1.25 µM) | 0.5 (≈ 1.25 µM) | 1 (≈ 2.49 µM)
CN(C)c1cc(NC(=O)CNC(C)(C)C)c(O)c2c1C[C@H]1C[C@H]3[C@H](N(C)C)C(O)=C(C(N)=O)C(=O)[C@@]3(O)C(O)=C1C2=O [TIGECYCLINE] |  |  | 0.025 (≈ 0.0427 µM) |  |  |  |  |  |  |  |  |  |  |  | 
CC[C@H]1OC(=O)[C@H](C)[C@@H](O[C@H]2C[C@@](C)(OC)[C@@H](O)[C@H](C)O2)[C@H](C)[C@@H](O[C@@H]2O[C@H](C)C[C@H](N(C)C)[C@H]2O)[C@](C)(O)C[C@@H](C)C(=O)[C@H](C)[C@@H](O)[C@]1(C)O [ERYTHROMYCIN] | 98.5 | 1.5 | ≤ 0.25 | ≤ 0.25 | ≤ 0.25 | 0 |  |  |  |  |  |  |  |  | 
CC1(C)S[C@@H]2[C@H](NC(=O)[C@H](N)c3ccccc3)C(=O)N2[C@H]1C(=O)O [AMPICILLIN] | 100 | 0 | ≤ 0.25 | ≤ 0.25 | ≤ 0.25 | 0 |  |  |  |  |  |  |  |  | 
CO/N=C(\C(=O)N[C@@H]1C(=O)N2C(C(=O)O)=C(COC(C)=O)CS[C@H]12)c1csc(N)n1 [CEFOTAXIME] | 100 | 0 | ≤ 0.06 | ≤ 0.06 | ≤ 0.06 | 0 |  |  |  |  |  |  |  |  | 
CN[C@H](CC(C)C)C(=O)N[C@H]1C(=O)N[C@@H](CC(N)=O)C(=O)N[C@H]2C(=O)N[C@H]3C(=O)N[C@H](C(=O)N[C@H](C(=O)O)c4cc(O)cc(O)c4-c4cc3ccc4O)[C@H](O)c3ccc(c(Cl)c3)Oc3cc2cc(c3O[C@@H]2O[C@H](CO)[C@@H](O)[C@H](O)[C@H]2O[C@H]2C[C@](C)(N)[C@H](O)[C@H](C)O2)Oc2ccc(cc2Cl)[C@H]1O [VANCOMYCIN] | 100 | 0 | ≤ 0.25 | 0.5 (≈ 0.345 µM) | 0.5 (≈ 0.345 µM) | 0 |  |  |  |  |  |  |  |  | 
C[C@H]1COc2c(N3CCN(C)CC3)c(F)cc3c(=O)c(C(=O)O)cn1c23.C[C@H]1COc2c(N3CCN(C)CC3)c(F)cc3c(=O)c(C(=O)O)cn1c23.O [LEVOFLOXACIN] | 92.4 | 0 | 2 | 2 | 2 | 7.6 | 2 | 2 | 2 | 2 | 2 | 2 | 2 | 2 | 4
CC1(C)S[C@@H]2[C@H](NC(=O)Cc3ccccc3)C(=O)N2[C@H]1C(=O)O [PENICILLIN G] | 100 | 0 | ≤ 0.03 | ≤ 0.03 | ≤ 0.03 | 0 |  |  |  |  |  |  |  |  | 
